# Results published in patent publication US20210400981A1, “ANTIMICROBIAL OZONE COMPOSITIONS AND METHODS OF USE THEREOF” (priority 2018, published 2021).
# How the values were obtained:
# [1] = tested on: S. aureus subspecies aureus Rosenbach, strain FDA 209; experiment: ASTM E1153-14 glass coupon test, 5 min treatment, CFU plate counts; format: cell-based, Staphylococcus aureus
# Source text: A freeze-dried stock of Staphylococcus (S. aureus subspecies aureus Rosenbach, strain FDA 209) was obtained from American Type Culture Collection (ATCC, Manassas, Va.). After rehydration and growth in appropriate culture medium (Staphylococcus: BD Tryptic soy broth lot #4335611), both plated stocks and stocks frozen in glycerol were created. Staphylococcus was qualified for absorbance at 600 nm versus colony forming units (CFU) by serially diluting inoculum and reading absorbance followed by plating of dilutions onto agar plates. […] Twenty microliters of the resulting inoculum were used to coat glass slides (Fisher), also known as test squares or coupons with 10^5 to 10^7 cells, as calculated from the standard curve generated from the absorbance qualification data, and allowed to dry in a 37° C. incubator for 40 minutes following ASTM E1153-14 (www.astm.org/Standards/E1153.htm). […]
# After incubation for 5 minutes following ASTM E1153-14, the supernatant in the vial was sampled and placed on test agar plates at a volume of 0.2 ml. […] Colony forming units (CFU) for each plate were counted, recorded and averaged for each sample. […] Sample CFUs were analyzed for statistical significance using the Mann Whitney U test with significance level α=0.05. […]
# [2] = tested on: Klebsiella; experiment: Test coupons coated with Klebsiella, CFU reduction versus water; details: acetate buffer with or without 1.5 ppm aqueous ozone
# [3] = tested on: Salmonella enterica; experiment: Test coupons coated with Salmonella enterica, CFU reduction versus water; format: cell-based; details: 0.05M acetate buffer with or without 1.5 ppm aqueous ozone
# [4] = Ability of the buffer to accept aqueous ozone (kiosk sensors and instrumentation); format: physicochemical; details: buffer at approximate pH 5.5 to 6, ozonated with the CCT 1.0 kiosk
# Source text: Additionally, not all buffering compounds are suitable or effective for use as additives. […] The MES and ascorbate buffers were unable to accommodate the addition of aqueous ozone, showing no ozone in the resulting solution according to the kiosk sensors and instrumentation.
# [5] = cited from earlier work
# [6] = tested on: Staphylococcus aureus subspecies aureus Rosenbach, strain FDA 209; experiment: AOAC method (961.02) spray disinfection of glass coupons, 10 min, turbidity (+/-) in Letheen broth; format: cell-based; details: for coupons negative: range-finding; for Percent kill / Number− / Number+: 10 min; for Number−: negative coupons; for Number+: positive coupons
# Source text: A freeze-dried stock of Staphylococcus (Staphylococcus aureus subspecies aureus Rosenbach, strain FDA 209), as specified by the AOAC method (961.02), was obtained from ATCC. After rehydration and growth in appropriate culture medium (BD Tryptic soy broth lot #4335611), both plated stocks and stocks frozen in glycerol were created. Staphylococcus was quantified for absorbance at 600 nm versus colony forming units (CFU) by serially diluting inoculum and reading absorbance followed by plating of dilutions onto agar plates. Prior to aqueous ozone testing, growth medium was inoculated and incubated in a shaker incubator (New Brunswick Scientific, serial #890615130) at 37° C. for 24 hours and then transfer cultured two additional times with a final incubation of 48 hours. Twenty microliters of the resulting inoculum was used to coat glass slides (Fisher), also known as test squares or coupons, with 10^5 to 10^7 cells, as calculated from the standard curve generated from the absorbance qualification data, and allowed to dry in a 37° C. incubator for 40 minutes following ASTM E1153-14. After drying, treated coupons were sequentially treated with 1.5 or 4 ppm aqueous ozone alone, 1.5 or 4 ppm aqueous ozone combined with a predetermined dilution of PAA, or PAA alone, then incubated for 10 minutes at room temperature. Additionally, immediately before and after testing three inoculated untreated coupons were place in labeled 50 ml conical tubes containing 20 ml of Letheen broth, vortexed, pooled, and plated to provide carrier counts. The mean log 10 density (LD) of the carrier counts for S. aureus must be between 5.0 and 6.5 in order for the test to be valid in this method.
# Briefly, aqueous ozone was generated using the free standing CCT 1.0 unit (mounted in a kiosk enclosure) at a concentration of 1.5 ppm or 4 ppm. The water source utilized by the CCT 1.0 was clean, cold, softened Omaha municipal tap water. […] Aqueous ozone was sterile collected in a biological safety cabinet before and used immediately. Treatments were applied to the appropriate freshly prepared coupons contained within labeled petri dishes using a sprayer provided by CleanCore.
# Following the testing period, coupons were removed from the individual petri dishes and transferred to corresponding labeled 50 ml conical tubes containing 20 ml of Letheen broth. One sterile un-inoculated coupon and one inoculated untreated coupon were also transferred to separate labeled 50 ml conical tubes containing 20 ml of Letheen broth in order to provide sterility and viability controls, respectively. All testing vials were shaken then incubated at 36±1° C. for 48±2 hours, then visually assessed for turbidity(+). Positive sample vials were plated to determine colony morphology similarity to test organism. All test plates were plated with 0.2 ml spread onto 2 replicates using a glass spreader and a Bel-Art inoculating turntable. Results of testing were analyzed for statistical significance in SPSS using a McNemar exact test for dichotomous data, with a significance level of α=0.05.
# [7] = humans, after exposure; cited from earlier work
# [8] = tested on: Salmonella Typhimurium (UK-1); experiment: Antimicrobial spray on inoculated chicken carcasses, rinsate plate counts; format: cell-based; details: spray 4x5 seconds; 500 ppm PAA with or without 10 ppm ozone
# Method: (§1) Briefly, chicken carcasses (70 whole hen carcasses for 7 treatments and 10 replications) were inoculated with 400 mL of a cocktail containing Salmonella Typhimurium (UK-1), E. coli (J53), and Campylobacter jejuni (3×10^7 CFU/mL) and allowed to adhere for 60 minutes at 4° C. for a final concentration of 10^5-10^6 CFU/g. Chicken carcasses then received no treatment (negative control) or were then treated by spraying (4×5 seconds) with tap water, tap water with 10 ppm ozone, tap water with PAA (50 ppm), tap water with PAA (500 ppm), tap water with 10 ppm ozone and PAA (500 ppm), or tap water with 10 ppm ozone and PAA (50 ppm). Further, the ambient PAA was measured using a PAA specific sensor during treatment. After treatment, chicken carcasses were rinsed in 400 mL of neutralizing buffered peptone water (20.0 g of buffered peptone, 7 g of refined soy lecithin or equivalent, 1.0 g of sodium thiosulfate, 12.5 g of sodium bicarbonate, per 1 liter of deionized water) for 2 minutes with agitation. Subsequently, the rinsate was serially diluted, spread plated on Xylose Lysine Deoxycholate (XLD) and Blood Free Campylobacter Agar (BFCA; modified Charcoal-Cefoperazone-Deoxycholate agar (mCCDA)), and incubated aerobically at 37° C. for 24 hours and microaerophilic at 42° C. for 48 hours, respectively. Log-transformed counts were analyzed using one-way ANOVA in JMP 14.0. Means were separated using Tukey's HSD when P≤0.05.
# [9] = tested on: Campylobacter jejuni; experiment: as above; format: cell-based
# Method: as §1
# [10] = Table 16A, 1.5 ppm ozone and/or 15 ppm PAA
# [11] = Table 16B, 4 ppm ozone and/or 15 ppm PAA
# [12] = Table 16C, 1.5 ppm ozone and/or 10 ppm PAA
# [13] = Table 16D, 1.5 ppm ozone and/or 20 ppm PAA, three experiments
smiles,measurement,setting,value
CC(=O)O [Acetic acid],"log reduction of S. aureus CFU post treatment, compared to a water control",[1]; 0.05M acetate buffer with or without 1.5 ppm aqueous ozone,less than 1 log
same,reduction versus water,"[1]; acetate buffer alone, no ozone",66.92%
same,log reduction in Klebsiella CFU versus the water control,[2],1 log
same,log reduction of Salmonella CFU versus water,[3],1 log
O=C1O[C@H]([C@@H](O)CO)C(O)=C1O [Ascorbic acid],ozone in the resulting buffered solution,[4],no ozone
O=C(O)CC(O)(CC(=O)O)C(=O)O [Citric acid],ozone in the resulting buffered solution,[4],did accept ozonation
"O=S(=O)(O)CCN1CCOCC1 [MES, 2-(N-morpholino) ethane sulfonic acid]",ozone in the resulting buffered solution,[4],no ozone
O=C(O)C(=O)O [Oxalic acid],pKa (second value),[5],4.40
same,ozone in the resulting buffered solution,[4],did accept ozonation
"CC(=O)OO [PAA, peracetic acid]",coupons negative,[6]; PAA 10 ppm in sterile water,3 out of 10 coupons
same,coupons negative,[6]; PAA 25 ppm in sterile water,6 out of 10 coupons
same,coupons negative,[6]; PAA 50 ppm in sterile water,9 out of 10 coupons
same,coupons negative,[6]; PAA 100 ppm in sterile water,9 out of 10 coupons
same,Percent kill,[6]; [10],76.7%
same,Number−,[6]; [10],23
same,Number+,[6]; [10],7
same,Percent kill,[6]; [11],73.3%
same,Number−,[6]; [11],22
same,Number+,[6]; [11],8
same,Percent kill,[6]; [12],6.7%
same,Number−,[6]; [12],2
same,Number+,[6]; [12],28
same,Percent kill,[6]; [13],87.8%
same,Number−,[6]; [13],79
same,Number+,[6]; [13],11
same,PAA level that can cause irritation to the upper respiratory tract,[7],5 ppm
same,log CFU per gram of Salmonella on carcasses,[8],5.86 log CFU/g
same,log CFU per gram of C. jejuni on carcasses,"[9]; spray 4x5 seconds, 500 ppm PAA with or without 10 ppm ozone",4.81 log CFU/g
same,effect on Campylobacter compared to untreated controls,"[9]; spray on chicken carcasses, P≤0.05",significantly reduced
"O=[O+][O-] [aqueous ozone, ozone]",Percent kill,[6]; [10],0.0%
same,Number−,[6]; [10],0
same,Number+,[6]; [10],30
same,Percent kill,[6]; [11],0.0%
same,Number−,[6]; [11],0
same,Number+,[6]; [11],30
same,Percent kill,[6]; [12],0.0%
same,Number−,[6]; [12],0
same,Number+,[6]; [12],30
same,Percent kill,[6]; [13],0.0%
same,Number−,[6]; [13],0
same,Number+,[6]; [13],90
